Laboratory results: patent US10088479B2, “Biomarker and uses thereof” (ISIS INNOVATION LIMITED, priority 2014, dated 2018)
Where no end group is shown, it is not given here. [ ]: non-standard residue; d: D form. Cit = NC(=O)NCCC[C@H](N)C(=O)O

Key:
RA sera = test: IgG response to cyclic citrullinated FBG peptides in RA and control sera; format: binding, human; settings: RA sera (n=20) vs control sera (n=20)
From the text: (A) Peptides with sequences corresponding to the amino acid sequence of FBG were designed, with the addition of cysteine residues at the amino and carboxy termini and the exchange of arginine for citrulline residues at positions identified by LC-MS/MS. (B) IgG response to citrullinated FBG peptides and arginine containing control peptides in patients with rheumatoid arthritis (RA; n=20) and healthy controls (n=20). The 95th percentile of the control sera was used to determine positivity (dashed line). Mann-Whitney U test was used to calculate p values for differences between groups (n.s.=no significant difference, *=p<0.05 and **=p<0.01, ***=p<0.001, […]).
With reference to FIG. 31, the antibody response in 20 RA and 20 control sera to 6 cyclic FBG peptides, encompassing citrulline residues was evaluated.

[1] = system: RA synovial membrane cultures; test: Blockade of spontaneous cytokine synthesis in RA synovial membrane cultures by FBG peptides; format: cell-based, human; settings: 24 h; for inhibition of cytokine synthesis at the highest concentrations: RA membrane cultures, peptide 25, 100 or 250 μM, highest concentration; for TNF and IL8 synthesis (spontaneous): RA synovial membrane cultures, 100 μM peptide
Experimental: RA membrane cells (representing a mixed population of all synovial cell types) were isolated from synovial membranes obtained from patients undergoing joint replacement surgery (Brennan (1989)). Synovial membrane tissue was digested in RPMI 1640 (GIBCO) containing 5% fetal calf serum (FCS) (GIBCO), 5 mg/ml collagenase type IV (Sigma) and 0 15 mg/ml DNAse type I (Sigma) and incubated at 37° C. for 2 h.
Immediately after isolation, RA membrane cells were cultured at 1×10^5 cells/well in RPMI 1640 containing 10% (v/v) FBS and 100 U/ml penicillin/streptomycin in 96-well tissue culture plates. Cells were incubated for 24 h at 37° C. with no addition, buffer control (PBS, 1% BSA, 0.01% NaN3), or with 25 μm, 100 μM or 250 μM of each FBG spanning peptide.
(§1) Supernatants were examined for the presence of the cytokines TNF-α, IL-6, and IL-8 by enzyme-linked immunosorbent assay (ELISA) according to the manufacturer's instructions (R&D systems). Absorbance was read on a spectrophotometric ELISA plate reader (Labsystems Multiscan Biochromic, Vantaa, Finland) and analyzed using the Ascent software program (Thermo Labsystems, Altrincham, UK).

[2] = system: primary human macrophages; test: Cytokine synthesis in primary human macrophages stimulated with FBG peptides; format: cell-based; settings: 1 or 20 μM peptide, 24 h
Experimental: After incubation the tissue was pipetted through a nylon mesh into a sterile beaker. The cells were then washed three times in complete medium (RPMI 1640 supplemented with 10% FCS). RA synovial fibroblasts were isolated from the mixed population of RA membrane cells by selection in DMEM (Bio-Whittaker) supplemented with 10% FBS, […], 100 U/ml penicillin, and streptomycin. Human monocytes were isolated from peripheral blood (London Blood Bank) and macrophages were derived from monocytes after differentiation for 4 days with 100 ng/ml of M-CSF.
(§2) Macrophages were cultured at 1×10^5 cells/well in RPMI 1640 containing 5% (v/v) FBS and 100 U/ml penicillin/streptomycin in 96-well tissue culture plates for 24 h before stimulation. Cells were incubated for 24 h at 37° C. with no addition, 1.0 μM FBG, 1 ng/ml LPS or 1 or 20 μM FBG peptide. Where stated, cells were pre-incubated with 20 μM FBG peptides for 15 min.
as §1

human macrophages = test: FBG or LPS induced cytokine synthesis in human macrophages after pre-incubation with FBG peptides; format: cell-based; settings: pre-incubation with 20 μM peptide, 24 h; for FBG mediated cytokine synthesis: then 1 μM whole FBG
Experimental: as §2, §1

[3] = system: primary human macrophages; test: TNF synthesis in primary human macrophages stimulated with native or citrullinated FBG; format: cell-based; settings: 0.1-1.0 μM, 24 h
Experimental: Primary human macrophages were isolated as described above and cultured at 1×10^5 cells/well in RPMI 1640 containing 5% (v/v) FBS and 100 U/ml penicillin/streptomycin in 96-well tissue culture plates for 24 h before stimulation. Cells were incubated for 24 h at 37° C. with no addition (UN), different concentrations (uM) of native FBG (nFBG) or cit FBG (cFBG) or citrullination buffer alone (CIT) or cit buffer plus PAD enzyme (CIT+PAD).
as §1, with “TNF-α” for “TNF-α, IL-6, and IL-8”

[4] = system: human dermal fibroblasts (HDF); test: Cell adhesion to coated FBG, crystal violet; format: cell-based; settings: coated wells, 45 minutes
Experimental: (§3) (A) The sequence identified to bind integrin αvβ3 is shown in white (Yokoyama et al., 2000). Within this sequence two Arginines (shown in black) were identified to be citrullinated. (B) Wells of a 96 well plate were coated with different concentrations of FBG, citrullinated FBG (cFBG), FBG incubated in buffer without Calcium (FBG —Ca^2+), or FBG incubated without PAD (FBG —PAD). As a positive control wells were coated with Fibronectin (FN) (1 ug/ml), and coating with BSA (10 mg/ml) served as negative control. Plates were incubated with human dermal fibroblasts (HDF) or synovial fibroblasts from RA patients (RAF) for 45 minutes and adhesion was measured by determining absorbance of attached cells after staining with crystal violet (0.1%). Data are shown as the mean of at least four independent experiments+s.e.m., *=p<0.05, **=p<0.01.

[5] = system: synovial fibroblasts from RA joints (RAF); test: Cell adhesion to coated FBG, crystal violet; format: cell-based, human; settings: coated wells, 45 minutes
Experimental: as §3

CVFLRRKNG-Cit-ENFYQNWC (CVFLRRKNG[Cit]ENFYQNWC; also: cyclic, closure not given here) [CIT55]
antibody response (RA sera): strong antibody response

CEMKLRPSNFRNLEG-Cit-Cit-KRC (CEMKLRPSNFRNLEG[Cit][Cit]KRC; also: cyclic, closure not given here) [CIT219/220]
antibody response (RA sera): strong antibody response

CEMKL-Cit-PSNF-Cit-NLEGRRKRC (CEMKL[Cit]PSNF[Cit]NLEGRRKRC; also: cyclic, closure not given here) [CIT209/214]
antibody response (RA sera): strong antibody response

WIVFLRRKNGRENFYQNWKAYAAGFGDRRE [Peptide 3]
inhibition of cytokine synthesis at the highest concentrations [1]: 95%
TNF and IL8 synthesis (spontaneous) [1]: inhibited

KTRYKLKVEGYSGTAGDSMAYHNGRSFST [Peptide 6]
induction of cytokine synthesis [2]: induced cytokine synthesis in a dose dependent manner

TIGLLYPFPKDCSQAMLNGDTTSGLYTIYL [Peptide 1]
induction of cytokine synthesis [2]: induced cytokine synthesis in a dose dependent manner

ELRVDLRDHGETAFAVYDKFSVGDAKTRYK [Peptide 5]
induction of cytokine synthesis [2]: induced cytokine synthesis in a dose dependent manner
effect on TNF synthesis ([1]; RA membrane cells): no effect
maximal inhibition of IL8 synthesis ([1]; RA membrane cells, dose dependent): 81%
FBG mediated cytokine synthesis (human macrophages): specifically blocked

WYRNCHRVNLMGRYGDNNHSQGVNWFHWKG [Peptide 8]
inhibition of cytokine synthesis at the highest concentrations [1]: 56%
TNF and IL8 synthesis (spontaneous) [1]: inhibited
LPS induced cytokine synthesis (human macrophages; then 1 ng/ml LPS): blocked
FBG mediated cytokine synthesis (human macrophages): blocked

B1: citrullinated FBG: recombinant FBG domain citrullinated in vitro with PAD (protein)
chain: GLLYPFPKDCSQAMLNGDTTSGLYTIYLNGDKAEALEVFCDMTSDGGGWIVFLRRKNGRENFYQNWKAYAAGFGDRREEFWLGLDNLNKITAQGQYELRVDLRDHGETAFAVYDKFSVGDAKTRYKLKVEGYSGTAGDSMAYHNGRSFSTFDKDTDSAITNCALSYKGAFWYRNCHRVNLMGRYGDNNHSQGVNWFHWKGHEHSIQFAEMKLRPSNFRNLEGRRKRA
modifications: non-natural residues; left off: small tags and cut ends
notes: recombinant FBG domain citrullinated in vitro with PAD
cytokine (TNFα) synthesis compared with native FBG [3]: better at stimulating cytokine (e.g. TNFα) synthesis
adhesion of HDF [4]: reduces adhesion
adhesion of RAF [5]: reduces adhesion
